Laboratory results as given in patent publication US6451814B1, “Heterocyclic β-3 adrenergic receptor agonists” (Wyeth, priority 2000, dated 2002).
Values joined by “and” are separate entries in the source; they are usually repeats but may differ in a detail not shown here. Identical values can stand only once.

Target: T1, human β3-adrenergic receptor (Homo sapiens, UniProt P13945)
T1 construct: Full length β3 AR clones (402 amino acids) containing the last 6 amino acids of hβ3—AR are prepared; expressed in transfected cells; host or cells: CHO cells
T1 sequence (P13945 whole entry): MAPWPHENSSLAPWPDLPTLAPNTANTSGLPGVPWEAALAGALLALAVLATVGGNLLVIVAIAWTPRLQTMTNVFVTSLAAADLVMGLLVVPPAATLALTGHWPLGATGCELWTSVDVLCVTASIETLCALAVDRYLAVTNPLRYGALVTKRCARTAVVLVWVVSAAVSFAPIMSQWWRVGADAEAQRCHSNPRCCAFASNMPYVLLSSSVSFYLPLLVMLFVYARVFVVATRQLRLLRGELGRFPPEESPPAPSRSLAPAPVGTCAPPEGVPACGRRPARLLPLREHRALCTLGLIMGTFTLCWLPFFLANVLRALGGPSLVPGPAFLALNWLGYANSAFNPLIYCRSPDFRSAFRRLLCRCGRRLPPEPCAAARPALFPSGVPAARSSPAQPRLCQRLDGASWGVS
Assay: cAMP response (SPA kit) in CHO cells transfected with human β3 adrenergic receptor
Assay type: cell-based
Conditions: for IA(β3): maximal response of compound compared to maximal response of isoproterenol at 10^-5 M, CHO cells, human β3-AR; for EC50: CHO cells expressing human β3-AR, 10^-9 M to 10^-5 M, 30 min at 37° C., cAMP by SPA, read-out: EC50(β3)

With “4-(4-{2-[(2S)-2-Hydroxy-3-(4-hydroxy-phenoxy)-propylamino]-ethyl}-phenylamino)-piperidine-1-carboxylic Acid 4-fluoro-benzylamide [Example 53]” the “IA(β3)” value was 1.17 and 1.5.

With `O=C(CCNC(=O)N1CCC(Nc2ccc(CCNC[C@H](O)COc3ccc(O)cc3)cc2)CC1)N1CCOCC1` [Example 90, 4-(4-{2-[(2S)-2-Hydroxy-3-(4-hydroxy-phenoxy)-propylamino]-ethyl}-phenylamino)-piperidine-1-carboxylic Acid (3-morpholin-4-yl-3-oxo-propyl)-amide] the EC50 was 77 nM and the “IA(β3)” value was 0.73.

`O=C(O)C1CCN(C(=O)N2CCC(Nc3ccc(CCNC[C@H](O)COc4ccc(O)cc4)cc3)CC2)CC1` [Example 62, 1-[4-(4-{2-[(2S)-2-Hydroxy-3-(4-hydroxy-phenoxy)-propylamino]-ethyl}-phenylamino)-piperidine-1-carbonyl]-piperidine-4-carboxylic acid] was tested, and the EC50 was 134 nM and the “IA(β3)” value was 1.05.

With `O=C(OCc1cc(F)ccc1F)N1CCC(Nc2ccc(CCNC[C@H](O)COc3ccc(O)cc3)cc2)CC1` [Example 122, 4-(4-{2-[(2S)-2-Hydroxy-3-(4-hydroxy-phenoxy)-propylamino]-ethyl}-phenylamino)-piperidine-1-carboxylic Acid 2,5-difluoro-benzyl Ester] the EC50 was 100 nM and the “IA(β3)” value was 0.81.

`O=C(NCc1ccc(F)cc1)N1CCC(Nc2ccc(CCNC[C@H](O)COc3cccc(O)c3)cc2)CC1` [Example 85, 4-(4-{2-[(2S)-2-Hydroxy-3-(3-hydroxy-phenoxy)-propylamino]-ethyl}-phenylamino)-piperidine-1-carboxylic Acid 4-fluoro-benzylamide] was tested, and the EC50 was 3 nM and the “IA(β3)” value was 0.82.

In the case of `O=C(NCc1ccc(F)cc1)N1CCC(S(=O)(=O)c2ccc(CCNC[C@H](O)COc3ccc(O)cc3)cc2)CC1` [Example 45, 4-(4-{2-[(2S)-2-Hydroxy-3-(4-hydroxy-phenoxy)-propylamino]-ethyl}-benzenesulfonyl)-piperidine-1-carboxylic Acid 4-fluoro-benzylamide], the EC50 is reported as 64 nM and the “IA(β3)” value is reported as 1.07.

For `O=C(O)COc1ccc(CNC(=O)N2CCC(Nc3ccc(CCNC[C@H](O)COc4ccc(O)cc4)cc3)CC2)c(F)c1` [Example 86, [3-Fluoro-4-[[[[4-[[4-[2-[[(S)-2-hydroxy-3-(4-hydroxyphenoxy)propyl]amino]ethyl]phenyl]amino]-1-piperidinyl]carbonyl]amino]methyl]phenoxy]acetic Acid], the EC50 was 127 nM and the “IA(β3)” value was 1.1.

With `O=C(NCc1ccc(Cl)c(Cl)c1)N1CCC(Nc2ccc(CCNC[C@H](O)COc3ccc(O)cc3)cc2)CC1` [Example 21, 4-(4-{2-[(2S)-2-Hydroxy-3-(4-hydroxy-phenoxy)-propylamino]-ethyl}-phenylamino)-piperidine-1-carboxylic Acid 3,4-dichloro-benzylamide] the EC50 was 30 nM and the “IA(β3)” value was 1.

With `O=C(c1n[nH]c2ccccc12)N1CCC(Nc2ccc(CCNC[C@H](O)COc3ccc(O)cc3)cc2)CC1` [Example 102, [4-(4-{2-[(2S)-2-Hydroxy-3-(4-hydroxy-phenoxy)-propylamino]-ethyl}-phenylamino)-piperidin-1-yl]-(1H-indazol-3-yl)-methanone] the EC50 was 9 nM and the “IA(β3)” value was 0.95.

With `Cc1sccc1C(=O)N1CCC(S(=O)(=O)c2ccc(CCNC[C@H](O)COc3ccc(O)cc3)cc2)CC1` [Example 107, [4-(4-{2-[(2S)-2-Hydroxy-3-(4-hydroxy-phenoxy)-propylamino]-ethyl}benenesulfonyl)-piperidin-1-yl]-(2-methyl-thiophen-3-yl)-methanone] the EC50 was 40 nM and the “IA(β3)” value was 0.92.

With `CC(=O)Nc1ccc(S(=O)(=O)N2CCC(Nc3ccc(CCNC[C@H](O)COc4ccc(O)cc4)cc3)CC2)cc1` [Example 114, N-{4-[4-(4-{2-[(2S)-2-Hydroxy-3-(4-hydroxy-phenoxy)-propylamino]-ethyl}-phenylamino)-piperidine-1-sulfonyl]-phenyl}-acetamide] the EC50 was 33 nM and the “IA(β3)” value was 1.1.

`CNC(=O)N1CCC(Nc2ccc(CCNC[C@H](O)COc3ccc(O)cc3)cc2)CC1` [Example 9, 4-(4-{2-[(2S)-2-Hydroxy-3-(4-hydroxy-phenoxy)-propylamino]-ethyl}-phenylamino)-piperidine-1-carboxylic Acid Methylamide] was tested, and the “IA(β3)” value was 0.85.

`CCCCCCNC(=O)N1CCC(S(=O)(=O)c2ccc(CCNC[C@H](O)COc3ccc(O)cc3)cc2)CC1` [Example 44, 4-(4-{2-[(2S)-2-Hydroxy-3-(4-hydroxy-phenoxy)-propylamino]-ethyl}-benzenesulfonyl)-piperidine-1-carboxylic Acid Hexylamide] was tested, and the EC50 was 36 nM and the “IA(β3)” value was 0.99.

In the case of `O=C(NCc1ccc(F)cc1)N1CCC(Oc2ccc(CCNC[C@H](O)COc3ccc(O)cc3)cc2)CC1` [Example 56, 4-(4-{2-[(2S)2-Hydroxy-3-(4-hydroxy-phenoxy)-propylamino]-ethyl}-phenoxy)-piperidine-1-carboxylic Acid 4-fluoro-benzylamide], the EC50 is reported as 52 nM and the “IA(β3)” value is reported as 0.84.

With `COc1ccc2[nH]c(C(=O)N3CCC(Nc4ccc(CCNCC(O)COc5ccc(O)cc5)cc4)CC3)cc2c1` (stereo not shown) [Example 94, [4-(4-{2-[2-Hydroxy-3-(4-hydroxy-phenoxy)-propylamino]-ethyl}-phenylamino)-piperidin-1-yl]-(5-methoxy-1H-indol-2-yl)-methanone] the EC50 was 10 nM and 54 nM and the “IA(β3)” value was 0.59 and 0.78.

In the case of `COC(=O)[C@@H]1CCCN1C(=O)N1CCC(Nc2ccc(CCNC[C@H](O)c3ccc(O)c(NS(C)(=O)=O)c3)cc2)CC1` [Example 77, 1-[[4-[[4-[2-[[(2R)-2-Hydroxy-2-[4-hydroxy[(methylsulfonyl)amino]phenyl]ethyl]amino]ethyl]phenyl]amino]-1-piperidinyl]carbonyl]-L-proline, Methyl Ester], the EC50 is reported as 28 nM and the “IA(β3)” value is reported as 0.99.

`CS(=O)(=O)Nc1cc([C@@H](O)CNCCc2ccc(NC3CCN(C(=O)c4ccc(C(=O)O)cc4)CC3)cc2)ccc1O` [Example 105, 4-[4-(4-{2-[(2R)-2-Hydroxy-2-(4-hydroxy-3-methanesulfonylamino-phenyl)-ethylamino]-ethyl}-phenylamino)-piperidine-1-carbonyl]-benzoic Acid] was tested, and the EC50 was 37 nM and the “IA(β3)” value was 1.

In the case of `CC(=O)Nc1nc(C)c(S(=O)(=O)N2CCC(Nc3ccc(CCNC[C@H](O)c4ccc(O)c(NS(C)(=O)=O)c4)cc3)CC2)s1` [Example 115, N-(5-{[4-(4-{2-[((2R)-2-hydroxy-2-{4-hydroxy-3-[(methylsulfonyl)amino]phenyl}-ethyl)amino]ethyl}anilino)piperidin-1-yl]sulfonyl}-4-methyl-1,3-thiazol-2-yl)acetamide], the EC50 is reported as 13 nM and the “IA(β3)” value is reported as 0.97.

For `CCCCCCCCNC(=O)N1CCC(Nc2ccc(CCNC[C@H](O)COc3ccc(O)c(NS(C)(=O)=O)c3)cc2)CC1` [Example 66, 4-(4-{2-[(2S)-2-Hydroxy-3-(4-hydroxy-3-methanesulfonylamino-phenoxy)-propylamino]-ethyl}-phenylamino)-piperidine-1-carboxylic Acidoctylamide], the EC50 was 200 nM and the “IA(β3)” value was 0.99.

For `CCCCCCCCNC(=O)N1CCC(Nc2ccc(CCNC[C@H](O)COc3ccc(N)nc3)cc2)CC1` [Example 5, 4-(4-{2-[(2S)-3-(6-Amino-pyridin-3-yloxy)-2-hydroxy-propylamino]-ethyl}-phenylamino)-piperidine-1-carboxylic Acid Octylamide], the “IA(β3)” value was 0.68.

In the case of `CCCCCCCCNC(=O)N1CCC(Oc2ccc(CCNC[C@H](O)COc3ccc(O)cc3)cc2)CC1` [Example 54, 4-[4-(2-{[(2S)-2-Hydroxy-3-(4-hydroxyphenoxy)propyl]amino}ethyl)phenoxy]-N-octyl-1-piperidinecarboxamide], the EC50 is reported as 1010 nM and 398 nM and 400 nM and the “IA(β3)” value is reported as 0.7 and 0.78 and 0.51.

With `O=C(NCc1ccc(Cl)cc1Cl)N1CCC(Nc2ccc(CCNC[C@H](O)COc3ccc(O)cc3)cc2)CC1` [Example 20, 4-(4-{2-[(2S)-2-Hydroxy-3-(4-hydroxy-phenoxy)-propylamino]-ethyl}-phenylamino)-piperidine-1-carboxylic Acid 2,4-dichloro-benzylamide] the “IA(β3)” value was 0.91.

For `CN(C(=O)CCNC(=O)N1CCC(Nc2ccc(CCNC[C@H](O)COc3ccc(O)cc3)cc2)CC1)c1ccc(Cl)cc1` [Example 82, 4-(4-{2-[(2S)-2-Hydroxy-3-(4-hydroxy-phenoxy)-propylamino]-ethyl}-phenylamino)-piperidine-1-carboxylic Acid {2-[(4-chloro-phenyl)-methyl-carbamoyl]-ethyl}-amide], the EC50 was 53 nM and the “IA(β3)” value was 0.94.

`CCOC(=O)C1CCCN(C(=O)N2CCC(Nc3ccc(CCNC[C@H](O)c4ccc(O)c(NS(C)(=O)=O)c4)cc3)CC2)C1` (stereo partly drawn) [Example 78, 1-[[4-[[4-[2-[[(2R)-2-Hydroxy-2-[4-hydroxy-3-[(methylsulfonyl)amino]phenyl]ethyl]amino]ethyl]phenyl]amino]-1-piperidinyl]carbonyl]-3-piperidine Carboxylic Acid, Ethyl Ester] was tested, and the “IA(β3)” value was 1.

`CCCCCCCCNC(=O)N1CCC(Nc2ccc(OCCNC[C@H](O)COc3ccc(O)cc3)cc2)CC1` [Example 73, 4-(4-{2-[(2S)-2-Hydroxy-3-(4-hydroxy-phenoxy)-propylamino]-ethoxy}-phenylamino)-piperidine-1-carboxylic Acid Octylamide] was tested, and the EC50 was 70 nM and the “IA(β3)” value was 0.8.

For `O=C(O)COc1ccc(NC(=O)N2CCC(Nc3ccc(CCNC[C@H](O)COc4ccc(O)cc4)cc3)CC2)cc1` [Example 58, (4-{[4-(4-{2-[(2S)-2-Hydroxy-3-(4-hydroxy-phenoxy)-propylamino]-ethyl}-phenylamino)-piperidine-1-carbonyl]-amino}-phenoxy)-acetic Acid], the EC50 was 320 nM and the “IA(β3)” value was 1.61.

With `CC(C)NC(=O)N1CCC(Nc2ccc(CCNC[C@H](O)COc3ccc(O)cc3)cc2)CC1` [Example 11] the EC50 was 90 nM and the “IA(β3)” value was 1.05.
